The Ki is the equilibrium dissociation constant of an inhibitor or competing ligand from its target.

The target in experiment [1] is ALK tyrosine kinase receptor [I1171N,D1203N] (UniProt Q9UM73, D1203N/I1171N). In words: Biochemical Kinase Assay. The method, then:
(§1) First, 250 nL of compound dissolved in DMSO (100-fold of the desired concentration) was dispensed into a 384-well plate. A 12.5 μL substrate solution containing ATP (2 mM) and fluorogenic phosphorylation substrate AQT0101 ([…] for ALK and ROS, AssayQuant) or AQT0104 (26 μM for TRKB, AssayQuant) in buffer (50 mM HEPES pH 7.5, […], 0.5 mM EGTA, 10 mM MgCl2) was added and mixed thoroughly. Then, a 12.5 μL kinase solution containing ALK (1.5 nM, Carna, 08-518), ALK I1171N/D1203N (4 nM, SignalChem, custom-made), ROS1 (0.6 nM, Carma, 08-163), ROS1-G2032R (0.5 nM, SignalChem, R14-121BG), or TRKB-wt (1.5 nM, SignalChem, N17-11G) kinase domains in buffer ([…] pH 7.5, 0.01% Brij-[…], 0.4 mg/mL BSA, 0.5 mM EGTA, and 10 mM MgCl2) was added and mixed thoroughly. The plate was sealed and read by SpectraMax Paradigm at λ=485 nm every 2 minutes for 120 minutes at 30° C. Initial rates of reaction (v) were calculated from the change in fluorescence intensity over time during the initial, linear portion of the reaction.

Experiment [2] addresses BDNF/NT-3 growth factors receptor (Homo sapiens, UniProt Q16620). The experiment is described as follows: Biochemical Kinase Assay. The protocol:
as §1

Sequence of ALK tyrosine kinase receptor [I1171N,D1203N] (Q9UM73 19-1620 I1171N/D1203N limits assumed): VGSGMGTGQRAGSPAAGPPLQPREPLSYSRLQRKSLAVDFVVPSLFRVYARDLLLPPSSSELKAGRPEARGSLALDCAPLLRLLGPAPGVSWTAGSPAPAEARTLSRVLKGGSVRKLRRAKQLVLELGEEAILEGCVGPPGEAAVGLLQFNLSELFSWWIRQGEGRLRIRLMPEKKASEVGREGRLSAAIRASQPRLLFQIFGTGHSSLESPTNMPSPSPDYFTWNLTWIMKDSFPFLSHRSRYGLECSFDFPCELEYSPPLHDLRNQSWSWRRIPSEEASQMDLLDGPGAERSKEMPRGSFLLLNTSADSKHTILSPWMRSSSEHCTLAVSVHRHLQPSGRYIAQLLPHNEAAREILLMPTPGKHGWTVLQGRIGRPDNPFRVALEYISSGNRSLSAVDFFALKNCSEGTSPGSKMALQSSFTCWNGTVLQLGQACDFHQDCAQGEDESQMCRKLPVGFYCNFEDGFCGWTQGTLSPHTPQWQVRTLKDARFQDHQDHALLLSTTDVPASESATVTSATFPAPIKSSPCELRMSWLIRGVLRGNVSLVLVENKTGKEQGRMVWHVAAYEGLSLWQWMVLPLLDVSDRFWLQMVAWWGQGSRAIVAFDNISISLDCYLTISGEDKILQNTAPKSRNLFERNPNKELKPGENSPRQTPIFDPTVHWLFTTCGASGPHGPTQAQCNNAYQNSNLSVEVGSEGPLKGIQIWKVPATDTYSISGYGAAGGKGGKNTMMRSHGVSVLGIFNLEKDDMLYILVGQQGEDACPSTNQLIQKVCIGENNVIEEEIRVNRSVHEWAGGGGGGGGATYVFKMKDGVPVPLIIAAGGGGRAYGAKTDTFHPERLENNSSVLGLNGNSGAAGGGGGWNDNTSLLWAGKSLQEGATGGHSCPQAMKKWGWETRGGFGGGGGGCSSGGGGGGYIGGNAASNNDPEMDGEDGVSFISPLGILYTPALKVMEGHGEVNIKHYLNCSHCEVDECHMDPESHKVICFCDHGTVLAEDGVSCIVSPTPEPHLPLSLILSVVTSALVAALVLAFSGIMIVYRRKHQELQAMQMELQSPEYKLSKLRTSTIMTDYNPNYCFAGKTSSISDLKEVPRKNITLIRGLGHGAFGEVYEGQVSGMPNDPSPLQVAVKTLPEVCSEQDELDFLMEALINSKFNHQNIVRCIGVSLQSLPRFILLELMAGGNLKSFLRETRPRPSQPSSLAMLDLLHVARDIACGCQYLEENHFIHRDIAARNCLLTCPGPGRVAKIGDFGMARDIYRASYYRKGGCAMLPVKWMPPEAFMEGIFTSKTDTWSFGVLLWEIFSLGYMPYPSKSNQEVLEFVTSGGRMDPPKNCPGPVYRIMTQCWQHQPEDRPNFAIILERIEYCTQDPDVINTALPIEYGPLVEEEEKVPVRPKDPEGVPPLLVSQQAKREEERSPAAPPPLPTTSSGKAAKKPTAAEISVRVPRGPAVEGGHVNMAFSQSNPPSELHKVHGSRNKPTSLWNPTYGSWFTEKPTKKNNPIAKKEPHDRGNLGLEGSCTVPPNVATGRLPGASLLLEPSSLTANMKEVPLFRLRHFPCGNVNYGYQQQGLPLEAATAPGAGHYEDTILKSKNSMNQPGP
Sequence of BDNF/NT-3 growth factors receptor (Q16620 whole entry): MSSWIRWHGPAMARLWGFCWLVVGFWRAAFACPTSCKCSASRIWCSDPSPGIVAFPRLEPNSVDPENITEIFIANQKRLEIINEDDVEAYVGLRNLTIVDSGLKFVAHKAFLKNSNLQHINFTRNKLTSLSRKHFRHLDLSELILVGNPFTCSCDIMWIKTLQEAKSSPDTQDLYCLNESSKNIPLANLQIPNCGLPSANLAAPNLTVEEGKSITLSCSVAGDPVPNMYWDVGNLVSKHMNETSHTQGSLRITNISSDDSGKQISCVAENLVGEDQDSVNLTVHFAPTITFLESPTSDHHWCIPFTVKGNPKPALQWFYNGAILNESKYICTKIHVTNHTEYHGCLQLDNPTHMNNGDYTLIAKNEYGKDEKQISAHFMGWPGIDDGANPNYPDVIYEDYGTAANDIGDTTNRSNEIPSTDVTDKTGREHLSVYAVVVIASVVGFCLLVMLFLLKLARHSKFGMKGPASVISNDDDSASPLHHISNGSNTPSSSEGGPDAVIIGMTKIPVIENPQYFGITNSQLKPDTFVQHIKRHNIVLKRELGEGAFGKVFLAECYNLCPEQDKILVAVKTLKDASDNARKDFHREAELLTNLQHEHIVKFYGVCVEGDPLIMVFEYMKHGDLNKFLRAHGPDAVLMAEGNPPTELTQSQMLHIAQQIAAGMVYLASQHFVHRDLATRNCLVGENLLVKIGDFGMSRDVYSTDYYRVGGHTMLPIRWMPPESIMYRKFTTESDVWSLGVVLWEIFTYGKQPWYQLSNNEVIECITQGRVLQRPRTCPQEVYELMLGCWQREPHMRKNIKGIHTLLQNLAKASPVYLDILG

Take `CCN(C)C(=O)c1nn(CC2CC2)c2c1Cc1cn(C)nc1-c1ccc(F)cc1[C@@H](C)Oc1cc-2cnc1N` [US20250326769, Example 38]: the Ki in experiment [1] is less than 0.05 µM.
As for `CC(C)N(C)C(=O)c1nn(CC2CC2)c2c1Cc1cn(C)nc1-c1ccc(F)cc1[C@@H](C)Oc1cc-2cnc1N` [US20250326769, Example 37], the Ki is less than 0.05 µM in experiment [1] and greater than 0.5 µM in experiment [2].
For `CCn1ncc2c1-c1cnc(N)c(c1)O[C@H](C)c1cc(F)ccc1-c1ncccc1O2` [US20250326769, Example 14], the Ki in experiment [1] and in experiment [2] was less than 0.05 µM each time.
For the compound `Cc1cc2n(n1)-c1c(F)cc(F)cc1[C@@H](C)Oc1cc(cnc1N)-c1c(c(C(=O)N(C)C)nn1CC1CC1)C2` [US20250326769, Example 44], the Ki in experiment [1] is less than 0.05 µM.
The compound `C[C@H]1Oc2cc(cnc2N)-c2c(c(C(N)=O)nn2CC2CC2)Cc2cccnc2-c2ccc(F)cc21` [US20250326769, Example 6] returned a Ki in experiment [1] of less than 0.05 µM.
